# In patent EP0750903A1, “Deodorant composition” (Coöperatie Cosun U.A., priority 1995, dated 1997):
# Legend:
# Assay in all cases: plate method, inhibition of growth on TSBA medium
# Type in all cases: cell-based
# Details in all cases: Table C; 1:50 dilution of an overnight culture; ester conc 400 ug/ml
# [1] = tested on: Staphylococcus epidermis ATCC 155
# Protocol: (§1) The tests reproduced below have been carried out on the basis of four strains which occur in the human armpit flora, viz. Micrococcus luteus ATCC 533, Staphylococcus epidermis ATCC 155, Corynebacterium xerosis ATCC 373 and Corynebacterium minutissimum ATCC 23348 (ATCC = American Type Culture Collection, Maryland 20852, USA).
# (§2) The Micrococcus luteus strain has been incubated at 30°C and the other three strains at 37°C. All strains have been tested for purity and then frozen in glycerol in liquid nitrogen. In addition, the strains have been kept on plate (TSBA medium; TSBA = trypton soya broth (medium CM 129 of Oxoid Ltd. + 1% agar), and regularly re-inoculated (at least once a week).
# (§3) The abovementioned sucrose-fatty acid esters have been used in concentrations of 400-800-1600-3200-6400 mg/l.
# (§4) The plate method was made use of as test method. In this method, the medium was prepared in sucrose-fatty acid solutions in the above concentrations. The plate, which was provided with a TSBA medium (see above), was then inoculated with 100 µl of culture and incubated at the desired temperature (see above). In this connection, use was made of overnight cultures in TSB (= trypton soya broth) which have been inoculated in undiluted and diluted form.
# (§5) The inhibition obtained in the test method of the growth of the respective strains is shown with the values 0 (no inhibition) and with 1, 2, 3, 4 or 5 plus signs, where + 0 - 20% inhibition ++ 20 - 40% inhibition +++ 40 - 60% inhibition ++++ 60 - 80% inhibition +++++ 80 - 100% inhibition.
# (§6) A blank determination without sucrose-fatty acid solution on TSBA was used as a control (pos. cont. TSBA; see Tables A and B in Examples I and II).
# [2] = tested on: Corynebacterium minutissimum ATCC 23348
# Protocol: as §1, §2, §3, §4, §5, §6
# [3] = tested on: Corynebacterium xerosis ATCC 373
# Protocol: as §1, §2, §3, §4, §5, §6
# [4] = tested on: Micrococcus luteus ATCC 533
# Protocol: as §1, §2, §3, §4, §5, §6
substance,measurement,setting,value
lactitol stearate,"inhibition of the growth, S.epidermis",[1],0 (0 (no inhibition))
same,"inhibition of the growth, C.minutissimum",[2],+++++ (+++++ 80 - 100% inhibition)
same,"inhibition of the growth, C.xerosis",[3],+++++ (+++++ 80 - 100% inhibition)
same,"inhibition of the growth, M.luteus",[4],+++++ (+++++ 80 - 100% inhibition)
sorbitol stearate,"inhibition of the growth, S.epidermis",[1],0 (0 (no inhibition))
same,"inhibition of the growth, C.minutissimum",[2],+++++ (+++++ 80 - 100% inhibition)
same,"inhibition of the growth, C.xerosis",[3],0 (0 (no inhibition))
same,"inhibition of the growth, M.luteus",[4],0 (0 (no inhibition))
sucrose behenate,"inhibition of the growth, S.epidermis",[1],0 (0 (no inhibition))
same,"inhibition of the growth, C.minutissimum",[2],+++++ (+++++ 80 - 100% inhibition)
same,"inhibition of the growth, C.xerosis",[3],+++ (+++ 40 - 60% inhibition)
same,"inhibition of the growth, M.luteus",[4],0 (0 (no inhibition))
sucrose hydroxystearate,"inhibition of the growth, S.epidermis",[1],0 (0 (no inhibition))
same,"inhibition of the growth, C.minutissimum",[2],+++++ (+++++ 80 - 100% inhibition)
same,"inhibition of the growth, C.xerosis",[3],+++++ (+++++ 80 - 100% inhibition)
same,"inhibition of the growth, M.luteus",[4],+++ (+++ 40 - 60% inhibition)
sucrose isostearate,"inhibition of the growth, S.epidermis",[1],0 (0 (no inhibition))
same,"inhibition of the growth, C.minutissimum",[2],+++++ (+++++ 80 - 100% inhibition)
same,"inhibition of the growth, C.xerosis",[3],+++++ (+++++ 80 - 100% inhibition)
same,"inhibition of the growth, M.luteus",[4],+ (+ 0 - 20% inhibition)
sucrose oleate,"inhibition of the growth, S.epidermis",[1],0 (0 (no inhibition))
same,"inhibition of the growth, C.minutissimum",[2],+++++ (+++++ 80 - 100% inhibition)
same,"inhibition of the growth, C.xerosis",[3],+++++ (+++++ 80 - 100% inhibition)
same,"inhibition of the growth, M.luteus",[4],+++ (+++ 40 - 60% inhibition)
